Assay results reported in article PMC8445441, “Elucidating the mechanism by which synthetic helper peptides sensitize Pseudomonas aeruginosa to multiple antibiotics” (PLoS Pathogens, 2021).

Key:
[1] = test system: P. aeruginosa PAO1; assay: Cutaneous mouse abscess infection model; type: in vivo; details: BALB/c mice, PAO1 2×10^7 CFU; single dose; azithromycin 7.5, chloramphenicol 8, doxycycline 2 mg/kg, each with D-11 10 mg/kg; 20 h post infection
Procedure: The mouse cutaneous abscess infection model was performed as previously described with minor modifications. 8-week-old specific-pathogen-free female BALB/c mice were used in the experiment. Before infection, 80 μL of 7.5% chloral hydrate were injected intraperitoneally to anaesthetize the mice. PAO1 was grown to an OD600 of 1.0. The bacteria were collected by centrifugation and washed twice with saline. Then the bacteria were resuspended in saline at a concentration of 4 × 10^8 CFU/ml. 50 μL of the bacterial suspension were injected into the right side of the dorsum of the mouse, resulting in 2 × 10^7 CFU per mouse. 30 minutes after the infection, 50 μL saline alone or containing indicated concentration of antibiotic or 10 mg/kg D-11, or a combination of antibiotic and 10 mg/kg D-11 was injected into the infected area. 20 hours post infection, the skin abscess was excised and subjected to homogenization in saline. The live bacteria numbers were determined by plating.

[2] = test system: PAO1 in human blood; assay: Antimicrobial activity in blood (ex vivo bacteremia model); type: cell-based, Pseudomonas aeruginosa; details: for duration of control of the infection in blood: human blood infected with PAO1, in the presence of 4 μM D-11; for antibacterial effect in blood (in words): human blood, 5×10^7 CFU/mL PAO1, antibiotic combined with D-11 (4 μM), 4 hours
Procedure: Human blood of healthy individuals was obtained from Sanquin (certified Dutch organization responsible for meeting the need in healthcare for blood and blood products, https://www.sanquin.nl/) and was infected with 5×10^7 CFU/mL of PAO1. The blood was distributed at 0.5 mL in 2 mL Eppendorf tubes and treated with the antibiotics and peptides at the indicated concentrations at 37 °C for 4 hours. The samples were decimal serially diluted in PBS. Drops of 10 μL of each dilution on LB agar to track the development of infection. The experiment was performed in triplicate.

Compound	reductions of CFU in the abscess compared to each individual antibiotic [1]	duration of control of the infection in blood [2]	antibacterial effect in blood (in words) [2]
O=C(N[C@H](CO)[C@H](O)c1ccc([N+](=O)[O-])cc1)C(Cl)Cl [Chloramphenicol]	2–3 log10	more than 24 hours	best antibacterial effects
CO[C@@H]1[C@@H](OC(N)=O)[C@@H](O)[C@H](Oc2ccc3c(O)c(NC(=O)c4ccc(O)c(CC=C(C)C)c4)c(=O)oc3c2C)OC1(C)C [Novobiocin]			relative week antibacterial effects
C[C@H]1c2cccc(O)c2C(=O)C2=C(O)[C@]3(O)C(=O)C(C(N)=O)=C(O)[C@@H](N(C)C)[C@@H]3[C@@H](O)[C@@H]21 [Doxycycline]	2–3 log10	more than 24 hours	best antibacterial effects
CC[C@H]1OC(=O)[C@H](C)[C@@H](O[C@H]2C[C@@](C)(OC)[C@@H](O)[C@H](C)O2)[C@H](C)[C@@H](O[C@@H]2O[C@H](C)C[C@H](N(C)C)[C@H]2O)[C@](C)(O)C[C@@H](C)CN(C)[C@H](C)[C@@H](O)[C@]1(C)O [Azithromycin]	2–3 log10	more than 24 hours	
CO[C@H]1/C=C/O[C@@]2(C)Oc3c(C)c(O)c4c(O)c(c(/C=N/N5CCN(C)CC5)c(O)c4c3C2=O)NC(=O)/C(C)=C\C=C\[C@H](C)[C@H](O)[C@@H](C)[C@@H](O)[C@@H](C)[C@H](OC(C)=O)[C@@H]1C [Rifampicin]			best antibacterial effects
CC[C@H]1OC(=O)[C@H](C)[C@@H](O[C@H]2C[C@@](C)(OC)[C@@H](O)[C@H](C)O2)[C@H](C)[C@@H](O[C@@H]2O[C@H](C)C[C@H](N(C)C)[C@H]2O)[C@](C)(OC)C[C@@H](C)C(=O)[C@H](C)[C@@H](O)[C@]1(C)O [Clarithromycin]		more than 24 hours	
CO[C@H]1[C@H](OC(=O)c2ccc(C)[nH]2)[C@H](O)[C@@H](Oc2ccc3c(O)c(NC(=O)c4c[nH]c(C(=O)Nc5c(O)c6ccc(O[C@H]7OC(C)(C)[C@@H](OC)[C@H](OC(=O)c8ccc(C)[nH]8)[C@@H]7O)c(C)c6oc5=O)c4C)c(=O)oc3c2C)OC1(C)C [Coumermycin A1]			relative week antibacterial effects
